Patent US11116760B2 (Gilead Sciences, Inc., priority 2018, dated 2021)

What follows are compounds tested against α4β7 integrin (Homo sapiens (Human), UniProt P13612+P26010) (assay: α4β7 Integrin Cell Capture Assay). Conditions: RPMI8866 cells captured on MadCAM-1 extracellular domain-coated plate.
Assay type: cell-based

Sequence of α4β7 integrin (P13612 34-1032): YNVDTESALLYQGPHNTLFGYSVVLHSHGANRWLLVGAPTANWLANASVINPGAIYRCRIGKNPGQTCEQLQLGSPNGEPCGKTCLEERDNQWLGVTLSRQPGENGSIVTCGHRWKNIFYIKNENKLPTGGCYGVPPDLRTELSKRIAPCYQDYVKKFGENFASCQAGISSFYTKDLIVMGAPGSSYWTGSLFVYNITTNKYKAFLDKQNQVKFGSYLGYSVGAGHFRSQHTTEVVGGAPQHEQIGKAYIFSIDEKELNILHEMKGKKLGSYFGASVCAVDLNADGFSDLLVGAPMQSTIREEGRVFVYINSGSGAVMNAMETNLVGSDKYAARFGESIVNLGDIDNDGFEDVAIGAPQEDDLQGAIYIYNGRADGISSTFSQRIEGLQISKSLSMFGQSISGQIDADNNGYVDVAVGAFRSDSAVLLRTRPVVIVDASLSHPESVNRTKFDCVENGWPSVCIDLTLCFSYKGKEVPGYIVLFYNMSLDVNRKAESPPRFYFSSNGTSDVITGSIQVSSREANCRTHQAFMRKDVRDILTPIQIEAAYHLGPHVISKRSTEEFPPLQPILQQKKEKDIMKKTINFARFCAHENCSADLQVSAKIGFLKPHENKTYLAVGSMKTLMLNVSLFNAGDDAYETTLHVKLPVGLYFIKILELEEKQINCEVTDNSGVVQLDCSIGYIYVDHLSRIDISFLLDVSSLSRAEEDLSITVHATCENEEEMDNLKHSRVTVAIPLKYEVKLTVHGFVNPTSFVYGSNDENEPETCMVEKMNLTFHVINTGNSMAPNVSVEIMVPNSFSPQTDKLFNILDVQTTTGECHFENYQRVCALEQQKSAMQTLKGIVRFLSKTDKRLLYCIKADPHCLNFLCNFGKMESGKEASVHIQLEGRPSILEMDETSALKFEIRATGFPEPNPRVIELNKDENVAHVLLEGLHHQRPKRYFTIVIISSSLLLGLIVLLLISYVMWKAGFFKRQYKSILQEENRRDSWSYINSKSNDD
Sequence of α4β7 integrin (P26010 20-798): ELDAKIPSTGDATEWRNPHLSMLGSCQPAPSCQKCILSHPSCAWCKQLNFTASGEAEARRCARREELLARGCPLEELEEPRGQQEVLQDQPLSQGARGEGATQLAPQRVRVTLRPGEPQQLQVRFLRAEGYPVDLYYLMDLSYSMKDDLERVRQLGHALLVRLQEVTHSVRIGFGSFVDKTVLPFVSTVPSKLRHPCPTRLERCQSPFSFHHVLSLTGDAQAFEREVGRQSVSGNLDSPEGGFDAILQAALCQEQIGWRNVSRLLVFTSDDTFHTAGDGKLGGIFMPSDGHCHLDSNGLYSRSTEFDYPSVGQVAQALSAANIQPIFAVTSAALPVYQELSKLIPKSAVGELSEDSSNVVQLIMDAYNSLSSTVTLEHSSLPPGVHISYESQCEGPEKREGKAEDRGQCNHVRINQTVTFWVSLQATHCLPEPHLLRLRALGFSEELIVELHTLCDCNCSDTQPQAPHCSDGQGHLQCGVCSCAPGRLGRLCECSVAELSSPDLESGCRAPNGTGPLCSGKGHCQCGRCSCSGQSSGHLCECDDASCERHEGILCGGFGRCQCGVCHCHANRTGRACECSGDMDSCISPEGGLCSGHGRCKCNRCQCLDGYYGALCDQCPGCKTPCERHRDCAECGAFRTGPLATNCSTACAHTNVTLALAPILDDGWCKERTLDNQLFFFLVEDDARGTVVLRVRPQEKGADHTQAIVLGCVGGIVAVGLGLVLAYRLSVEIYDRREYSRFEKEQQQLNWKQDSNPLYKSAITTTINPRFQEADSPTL

Compared with `Cn1c2c(cc(-c3ccc(C[C@H](NC(=O)c4c(F)cc(N5CCOC[C@@H]5C(F)(F)F)cc4F)C(=O)O)c4cccnc34)c1=O)CNCC2` [Example 438], `Cc1cc(N2CCOC[C@@H]2C(F)(F)F)cc(F)c1C(=O)N[C@@H](Cc1ccc(-n2c(=O)c3c(n(C)c2=O)COCC3)c2ncccc12)C(=O)O` [Example 411] is 4.8-fold lower in EC50: 0.291 nM for the first, 0.06 nM for the second.

Going from `Cc1cc(N2CCOC[C@@H]2C(F)(F)F)cc(F)c1C(=O)N[C@@H](Cc1ccc(-n2c(=O)c3cnccc3n(C)c2=O)c2ncc(F)cc12)C(=O)O` [Example 427] to `Cc1cc(N2CCOC[C@@H]2C(F)(F)F)cc(F)c1C(=O)N[C@@H](Cc1ccc(-n2c(=O)c3ccncc3n(C)c2=O)c2ncccc12)C(=O)O` [Example 356, (S)-2-(2-fluoro-6-methyl-4-((R)-3-(trifluoromethyl)morpholino)benzamido)-3-(8-(1-methyl-2,4-dioxo-1,4-dihydropyrido[3,4-d]pyrimidin-3(2H)-yl)quinolin-5-yl)propanoic acid], the EC50 falls from 0.355 nM to 0.05 nM (7.1-fold).

Going from `Cc1cc(-c2nccn2CC(F)(F)F)cc(F)c1C(=O)N[C@@H](Cc1ccc(-n2c(=O)c3ccncc3n(C)c2=O)c2ncccc12)C(=O)O` [Example 419] to `Cc1cc(N2CCCC[C@@H]2C(F)(F)F)cc(F)c1C(=O)N[C@@H](Cc1ccc(-c2nc(C)c(C)n(C)c2=O)c2ncccc12)C(=O)O` [Example 453], the EC50 rises from 0.369 nM to 0.677 nM (1.8-fold).

With `Cc1cc(C(F)(F)F)c(-c2ccc(C[C@H](NC(=O)c3c(F)cc(N4CCO[C@@H](C(F)(F)F)C4)cc3F)C(=O)O)c3cccnc23)c(=O)n1C` [Example 447] the EC50 was 0.271 nM.

Same assay, conditions: Table 1; capture of α4β7 expressing RPM18866 cells on MadCAM-1 extracellular domain-coated plate

Compared with `COc1cc2ccccc2cc1-c1ccc(C[C@H](NC(=O)c2c(F)cccc2F)C(=O)O)c2cccnc12` [Example 9, (S)-2-(2,6-difluorobenzamido)-3-(8-(3-methoxynaphthalen-2-yl)quinolin-5-yl)propanoic acid], `CCOCc1cc(OC)c(-c2ccc(C[C@H](NC(=O)c3c(F)cccc3F)C(=O)O)c3cccnc23)c(OC)c1` [Example 18, (S)-2-(2,6-difluorobenzamido)-3-(8-(4-(ethoxymethyl)-2,6-dimethoxyphenyl)quinolin-5-yl)propanoic acid] is 2.8-fold lower in EC50: 25.1 nM for the first, 9 nM for the second.

First: CC[C@@H](N(C)c1cc(F)c(C(=O)N[C@@H](Cc2ccc(-c3c(C(F)(F)F)cc(C)n(C)c3=O)c3ncccc23)C(=O)O)c(F)c1)C(F)(F)F [Example 135, (S)-2-(2,6-difluoro-4-(methyl((R)-1,1,1-trifluorobutan-2-yl)amino)benzamido)-3-(8-(1,6-dimethyl-2-oxo-4-(trifluoromethyl)-1,2-dihydropyridin-3-yl)quinolin-5-yl)propanoic acid]
Second: Cc1cc(C(F)(F)F)c(-c2ccc(C[C@H](NC(=O)c3c(F)cc(N4CCCC[C@@H]4C(F)(F)F)cc3F)C(=O)O)c3cccnc23)c(=O)n1C [Example 129, (S)-2-(2,6-difluoro-4-((R)-2-(trifluoromethyl)piperidin-1-yl)benzamido)-3-(8-(1,6-dimethyl-2-oxo-4-(trifluoromethyl)-1,2-dihydropyridin-3-yl)quinolin-5-yl)propanoic acid]
The EC50 of the first is 1.7-fold lower: 0.4 nM for the first, 0.7 nM for the second. The first is the more potent here.

Compared with `N#Cc1ccc(-c2ccc(C[C@H](NC(=O)c3c(F)cc(C(=O)Nc4ccccc4)cc3F)C(=O)O)c3cccnc23)c(Cl)c1` [Example 26, (S)-3-(8-(2-chloro-4-cyanophenyl)quinolin-5-yl)-2-(2,6-difluoro-4-(phenylcarbamoyl)benzamido)propanoic acid], `Cc1cccc(F)c1C(=O)N[C@@H](Cc1ccc(-c2ccc(C#N)cc2Cl)c2ncccc12)C(=O)O` [Example 1, (S)-3-(8-(2-chloro-4-cyanophenyl)quinolin-5-yl)-2-(2-fluoro-6-methylbenzamido)propanoic acid] is 1.5-fold lower in EC50: 32.8 nM for the first, 21.2 nM for the second.

First: O=C(N[C@@H](Cc1ccc(-c2ccccc2C(F)(F)F)c2ncccc12)C(=O)O)c1c(F)cc(NS(=O)(=O)c2ccc(-c3ccnc(F)c3)cc2)cc1F [Example 65, (S)-2-(2,6-difluoro-4-((4-(2-fluoropyridin-4-yl)phenyl)sulfonamido)benzamido)-3-(8-(2-(trifluoromethyl)phenyl)quinolin-5-yl)propanoic acid]
Second: COc1cccc(C)c1-c1ccc(C[C@H](NC(=O)c2c(F)cc(NS(=O)(=O)c3ccc(-c4ccnc(F)c4)cc3)cc2F)C(=O)O)c2cccnc12 [Example 64, (2S)-2-(2,6-difluoro-4-((4-(2-fluoropyridin-4-yl)phenyl)sulfonamido)benzamido)-3-(8-(2-methoxy-6-methylphenyl)quinolin-5-yl)propanoic acid]
The EC50 of the first is 10-fold higher: 8.4 nM for the first, 0.8 nM for the second.

Compared with `N#Cc1ccc(-c2ccc(C[C@H](NC(=O)c3c(F)cc(N4CCCC[C@@H]4C(F)(F)F)cc3F)C(=O)O)c3cccnc23)c(Cl)c1` [Example 75, (S)-3-(8-(2-chloro-4-cyanophenyl)quinolin-5-yl)-2-(2,6-difluoro-4-((R)-2-(trifluoromethyl)piperidin-1-yl)benzamido)propanoic acid], `N#Cc1ccc(-c2ccc(C[C@H](NC(=O)c3c(F)cc(N4CCO[C@H](C(F)(F)F)C4)cc3F)C(=O)O)c3cccnc23)c(Cl)c1` [Example 85, (S)-3-(8-(2-chloro-4-cyanophenyl)quinolin-5-yl)-2-(2,6-difluoro-4-((S)-2-(trifluoromethyl)morpholino)benzamido)propanoic acid] is 3.2-fold lower in EC50: 80.4 nM for the first, 25.4 nM for the second.

`CN(C)c1ccnc(-c2ccc(C[C@H](NC(=O)c3c(F)cc(N4CCOC[C@@H]4C(F)(F)F)cc3F)C(=O)O)c3cccnc23)c1C(F)(F)F` [Example 105, (S)-2-(2,6-difluoro-4-((R)-3-(trifluoromethyl)morpholino)benzamido)-3-(8-(4-(dimethylamino)-3-(trifluoromethyl)pyridin-2-yl)quinolin-5-yl)propanoic acid] and `CN(C)c1cccnc1-c1ccc(C[C@H](NC(=O)c2c(F)cc(N3CCOC[C@@H]3C(F)(F)F)cc2F)C(=O)O)c2cccnc12` [Example 101, (S)-2-(2,6-difluoro-4-((R)-3-(trifluoromethyl)morpholino)benzamido)-3-(8-(3-(dimethylamino)pyridin-2-yl)quinolin-5-yl)propanoic acid] are the same in EC50: 4.1 nM for the first, 4.1 nM for the second.

First: CC[C@@H](Nc1cc(F)c(C(=O)N[C@@H](Cc2ccc(-c3c(C)n(C)c(=O)n(C)c3=O)c3ncccc23)C(=O)O)c(F)c1)C(F)(F)F [Example 114, (S)-2-(2,6-difluoro-4-(((R)-1,1,1-trifluorobutan-2-yl)amino)benzamido)-3-(8-(1,3,6-trimethyl-2,4-dioxo-1,2,3,4-tetrahydropyrimidin-5-yl)quinolin-5-yl)propanoic acid]
Second: Cn1cc(C(F)(F)F)cc(-c2ccc(C[C@H](NC(=O)c3c(F)cc(N4CCOC[C@@H]4C(F)(F)F)cc3F)C(=O)O)c3cccnc23)c1=O [Example 98, (S)-2-(2,6-difluoro-4-((R)-3-(trifluoromethyl)morpholino)benzamido)-3-(8-(1-methyl-2-oxo-5-(trifluoromethyl)-1,2-dihydropyridin-3-yl)quinolin-5-yl)propanoic acid]
The EC50 of the first is 2.3-fold lower: 0.6 nM for the first, 1.4 nM for the second.

Compound `N#Cc1ccc(-c2ccc(C[C@H](NC(=O)c3c(F)cc(N4CCOCC4)cc3F)C(=O)O)c3cccnc23)c(Cl)c1` [Example 79, (S)-3-(8-(2-chloro-4-cyanophenyl)quinolin-5-yl)-2-(2,6-difluoro-4-morpholinobenzamido)propanoic acid] has an EC50 of 26.1 nM.

Same assay, conditions: Table 2; capture of α4β7 expressing RPM18866 cells on MadCAM-1 extracellular domain-coated plate

Compared with `COc1cc(F)c(C(F)(F)F)cc1-c1ccc(C[C@H](NC(=O)c2c(F)cccc2F)C(=O)O)c2cccnc12` [Example 215], `C[C@@H](Nc1cc(F)c(C(=O)N[C@@H](Cc2ccc(-c3nc(N)ccc3C(F)(F)F)c3ncccc23)C(=O)O)c(F)c1)C(F)(F)F` [Example 238] is 10-fold lower in EC50: 29 nM for the first, 2.8 nM for the second.

Going from `N#Cc1ccc(-c2ccc(C[C@H](NC(=O)c3c(Cl)cc4[nH]c(Cc5ccccc5)cc4c3Cl)C(=O)O)c3cccnc23)c(Cl)c1` [Example 240] to `O=C(N[C@@H](Cc1ccc(-c2ncc3ccccc3c2Br)c2ncccc12)C(=O)O)c1c(Cl)cccc1Cl` [Example 303], the EC50 falls from 79.2 nM to 9.4 nM (8.4-fold). The second is the more potent here.

First: CC[C@@H](Nc1cc(F)c(C(=O)N[C@@H](Cc2ccc(-c3nc(C)c4ccc(F)cc4n3)c3ncccc23)C(=O)O)c(F)c1)C(F)(F)F [Example 258]
Second: CC[C@@H](Nc1cc(F)c(C(=O)N[C@@H](Cc2ccc(-c3c(C)c(F)cn(C)c3=O)c3ncccc23)C(=O)O)c(F)c1)C(F)(F)F [Example 199]
The EC50 of the first is 2.4-fold higher: 3.6 nM for the first, 1.5 nM for the second.

Compared with `CCOCc1cc(OC)c(-c2ccc(C[C@H](NC(=O)c3c(Cl)cc4cc[nH]c4c3Cl)C(=O)O)c3cccnc23)c(OC)c1` [Example 219], `CCOCc1cc(OC)c(-c2ccc(C[C@H](NC(=O)c3c(F)cc(NC(C)=O)cc3F)C(=O)O)c3cccnc23)c(OC)c1` [Example 329] is 9.6-fold higher in EC50: 2.1 nM for the first, 20.1 nM for the second.

Going from `Cc1cc(C(F)(F)F)c(-c2ccc(C[C@H](NC(=O)c3c(F)cc(N4CCO[C@@H](C)[C@H]4C(F)(F)F)cc3F)C(=O)O)c3cccnc23)c(=O)n1C` [Example 227] to `Cc1c(N(C)C)cc(-c2ccc(C[C@H](NC(=O)c3c(F)cc(N4CCOC[C@@H]4C(F)(F)F)cc3F)C(=O)O)c3cccnc23)c(=O)n1C` [Example 259], the EC50 rises from 1.1 nM to 3.7 nM (3.4-fold).

`N#Cc1ccc(-c2ccc(C[C@H](NC(=O)c3c(F)cc(NC4(C(F)(F)F)CCC4)cc3F)C(=O)O)c3cccnc23)c(Cl)c1` [Example 164] and `C[C@H](NC(=O)c1cc(F)c(C(=O)N[C@@H](Cc2ccc(-c3ccc(C#N)cc3Cl)c3ncccc23)C(=O)O)c(F)c1)C(F)(F)F` [Example 195] are within 1.5-fold of each other in EC50: 88.6 nM for the first, 62.3 nM for the second.

`Cc1ccnc(-c2ccc(C[C@H](NC(=O)c3c(F)cc(N4CCOC[C@@H]4C(F)(F)F)cc3F)C(=O)O)c3cccnc23)c1C` [Example 271] and `Cc1nc(C)c(-c2ccc(C[C@H](NC(=O)c3c(F)cc(N4CCOC[C@@H]4C(F)(F)F)cc3F)C(=O)O)c3cccnc23)nc1C` [Example 274] are within 1.5-fold of each other in EC50: 4.5 nM for the first, 4.8 nM for the second.

Compared with `O=C(N[C@@H](Cc1ccc(NC(=O)c2c(Cl)cccc2Cl)c2ncccc12)C(=O)O)c1c(F)cccc1F` [Example 239], `O=C(N[C@@H](Cc1ccc(-c2c(C(F)(F)F)cc3n(c2=O)CCC3)c2ncccc12)C(=O)O)c1c(Cl)cccc1Cl` [Example 308] is 6.5-fold lower in EC50: 77.9 nM for the first, 11.9 nM for the second.
